Measurements taken from patent US20250263416A1, “SPPL2a INHIBITORS” (Incyte Corporation, priority 2024, published 2025).
“Also recorded” adds a separate entry of the source.

Tests used:
human SPPL2a = molecular target: T1, human SPPL2a (Homo sapiens, UniProt Q8TCT8); experiment: Nuclear translocation imaging assay for human SPPL2a (SPPL2a reporter U2OS cell line); assay type: cell-based; conditions: U2OS reporter cells, 24 h incubation
T1 construct: expressed in transfected cells; host or cells: U2OS (SPPL2a reporter cell line)
T1 sequence (Q8TCT8 26-520): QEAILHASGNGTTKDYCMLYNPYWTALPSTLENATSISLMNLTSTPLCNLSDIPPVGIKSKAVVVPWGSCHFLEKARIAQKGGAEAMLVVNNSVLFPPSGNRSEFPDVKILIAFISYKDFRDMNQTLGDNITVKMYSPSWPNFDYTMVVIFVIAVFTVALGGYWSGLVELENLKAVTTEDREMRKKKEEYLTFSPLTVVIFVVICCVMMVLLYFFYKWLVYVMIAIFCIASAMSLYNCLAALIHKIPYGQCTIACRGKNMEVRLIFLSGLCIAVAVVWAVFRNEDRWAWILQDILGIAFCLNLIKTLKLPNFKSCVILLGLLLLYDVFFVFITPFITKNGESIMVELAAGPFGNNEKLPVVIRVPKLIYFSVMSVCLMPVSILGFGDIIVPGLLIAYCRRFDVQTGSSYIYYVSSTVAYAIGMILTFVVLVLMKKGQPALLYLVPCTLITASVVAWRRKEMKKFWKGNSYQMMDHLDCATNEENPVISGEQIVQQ
Method: The nuclear translocation imaging assays for human SPPL2a were performed using an SPPL2a reporter U2OS cell line as previously described (Velcicky et al 2018, Zhang et al 2017). These cells stably express human SPPL2a and a doxycycline inducible eGFP TNFα (aa 1-76) NTF fusion protein (SPPL2a substrate). Both Example 1 and Example A were added at indicated concentrations and cells were incubated for 24 h, washed, and fixed. Nuclei were stained with DAPI. Images were acquired on a confocal fluorescence microscope system LSM-800 (Carl Zeiss). Image data was analyzed by using mid-section from Z-stack images of at least 10 individual cells per sample. All data is presented as mean+SEM. Statistical significance was calculated with the ANOVA test using GraphPad Prism™ 10.

[1] = tested on: Collagen-Induced Arthritis (CIA) mouse model; experiment: Collagen-induced arthritis (CIA) mouse model; assay type: in vivo, DBA-1 mice; conditions: 50 mg/kg dose, compared to the vehicle
Excerpt: Female DBA-1 mice (8-9 weeks old) were used in the CIA mouse model. This model is widely used to evaluate efficacy of immunomodulatory drugs on autoimmune diseases, such as arthritis. DBA/1 mice develop collagen-induced arthritis (CIA) after immunization with bovine type II collagen emulsified in complete Freund's adjuvant (CFA), followed by a booster dose 21 days later. Both the immunizations were given subcutaneously, approximately 25 mm from the base of the tail on opposite sides. Immunizations were performed under a short duration isoflurane anesthesia. Mice were evaluated for the disease progression up to 45 days. […] Statistical significance was determined using Two-way ANOVA with multiple comparison tests to compare all groups to the vehicle.

[2] = tested on: MRL/MpJ-Faslpr/J mice, lupus-like disease; experiment: Mouse model of systemic lupus (SLE); assay type: in vivo
Method: A mouse model of SLE was used to evaluate the treatment potential of SPPL2a inhibition by Example A in vivo in female mice aged 8 weeks. The MRL/MpJ-Faslpr/J (JAX stock #000485) mice used in this study develop a spontaneously accelerated and aggressive lupus-like disease characterized by immune-mediated damage to the organs, and by the presence of circulating auto-Abs against dsDNA, which are serological hallmarks of SLE. Mice were prophylactically treated orally with Example A at 15 mg/kg and 30 mg/kg dose, twice daily after allotment into different groups starting at week 10. As a control, cyclophosphamide at 25 mg/kg dose was given intraperitoneally, twice weekly. Mice were monitored weekly for the clinical sign development, proteinuria, skin lesions and lymphadenopathy. The study was terminated by euthanizing mice at 20 weeks of age following 10 weeks of dosing. All data is presented as mean+SEM. For comparison of more than two groups, ANOVA was used. All statistical analysis was performed using GraphPad Prism™10.
Inflammatory cytokine levels (TNFα and IFNγ) and murine immunoglobulin levels (Ig) were measured using MSD® multi-spot assay kits.

[3] = tested on: experimental autoimmune encephalomyelitis (EAE) mouse model; experiment: Experimental autoimmune encephalomyelitis (EAE) mouse model; assay type: in vivo, mice; conditions: for disease score (EAE severity score): compared to vehicle
Method: The EAE model was used to evaluate the potential of SPPL2a inhibition in an in vivo mouse model of autoimmune disease. In this study, EAE was induced in female mice, aged 7-9 weeks, using an EAE induction kit (EK-2160, Hooke Labs) containing human recombinant MOG 1 125 antigen emulsified in CFA. EAE severity score was measured on a scale of 0-6 as per the IACUC approved protocol for 20 days. Mice were treated orally with the SPPL2a inhibitor Example A at 15 mg/kg and 30 mg/kg twice daily (first dose given on the same day prior to immunization). Animals were euthanized and tissues, plasma, and serum were collected for further analysis.
Anti-mouse MOG antibodies were measured in the serum of mice using quantitative ELISA kit (AS-55156, AnaSpec). […] All data is presented as mean+SEM. For comparison of more than two groups, ANOVA was used. All statistical analysis was performed using GraphPad Prism™ 10 or higher.

[4] = both doses tested (15 and 30 mg/kg orally twice daily)
[5] = both treated groups (15 and 30 mg/kg BID)

Compound: CNC(=O)c1nc(C)c(C(=O)NC[C@@H](C)C(=O)N[C@@H]2C(=O)N3CCCN3Cc3ccccc32)s1 [Example A, N^2,4-dimethyl-N^5—((R)-2-methyl-3-oxo-3-(((S)-11-oxo-2,3,10,11-tetrahydro-1H,5H-benzo[d]pyrazolo[1,2-a][1,2]diazepin-10-yl)amino)propyl)thiazole-2,5-dicarboxamide]
- inhibition of nuclear translocation of TNFα-GFP (human SPPL2a): inhibited; also recorded: comparable and significant TNFα-GFP inhibition of nuclear translocation
- clinical signs of CIA [1]: significantly reduced
- TNFα levels in mouse serum ([2]; 15 mg/kg BID): No significant changes
- Levels of IgA ([2]; 15 mg/kg dose): significantly down regulated
- kidney pathology ([2]; 15 mg/kg, compared to vehicle control): did not exhibit a test article-related change compared to the vehicle control except in the blood vessels
- TNFα levels in mouse serum ([2]; 30 mg/kg BID): significantly inhibits
- antibody production in mouse serum ([2]; 30 mg/kg BID): significantly inhibits
- Levels of IgA ([2]; 30 mg/kg dose): trended lower
- kidney pathology: membranoproliferative nephritis, tubular dilation and casts, interstitial inflammation, fibrosis, blood vessel necrosis, and inflammation ([2]; 30 mg/kg oral twice daily): statistically significant decrease
- Serum IFNγ levels ([2]; both doses (15 and 30 mg/kg BID)): modest increase
- proteinuria [2, 4]: effectively reduced; also recorded: Significant reduction
- skin lesion formation / skin lesional scores [2, 4]: effectively reduced; also recorded: Significant reduction
- IgG1 [2, 5]: significantly lower
- IgG2a [2, 5]: significantly lower
- IgG2b [2, 5]: significantly lower
- IgG3 [2, 5]: significantly lower
- IgM [2, 5]: significantly lower
- anti ds-DNA antibody production ([2]; compared to vehicle control): significantly reduced
- lymphadenopathy ([2]; highest dose tested): significantly reduced; also recorded: Significant reduction
- IgG2a level ([3]; 15 mg/kg): Trends to lower Ig titers
- IgG2b level ([3]; 15 mg/kg): Trends to lower Ig titers
- IgM level ([3]; 15 mg/kg): Trends to lower Ig titers
- disease score (EAE severity score) ([3]; 15 mg/kg orally twice daily): significant reduction
- IgA ([3]; 30 mg/kg): lower total IgG1 and IgA trend
- IgG2a titer ([3]; 30 mg/kg): Significant reduction
- IgG2b titer ([3]; 30 mg/kg): Significant reduction
- IgG3 titer ([3]; 30 mg/kg): Significant reduction
- IgM titer ([3]; 30 mg/kg): Significant reduction
- total IgG1 ([3]; 30 mg/kg): lower total IgG1 and IgA trend
- disease score (EAE severity score) ([3]; 30 mg/kg orally twice daily): significant reduction
- total Ig levels ([3]; EAE induced mice): significantly inhibited
- clinical signs of EAE ([3]; oral, twice daily, starting at day 13 of the treatment): significantly reduced
- anti-MOG antibodies in serum ([3]; quantitative ELISA): significant reduction
